{"source": "ChEMBL document CHEMBL1123744", "about": "“A quantitative structure-activity relationship analysis of some 4-aminodiphenyl sulfone antibacterial agents using linear free energy and molecular modeling methods” (J Med Chem, 1987)", "data": [{"system": "Mycobacterium lufu", "experiment": "In vitro inhibition of Mycobacterium lufu dihydopterate synthase.", "values": [{"compound": "CCCNc1ccc(S(=O)(=O)c2ccc(N)cc2)c(O)c1", "pC": 5.71}, {"compound": "CCNc1ccc(S(=O)(=O)c2ccc(N)cc2)c(OC)c1", "pC": 5.75}, {"compound": "Nc1ccc(S(=O)(=O)c2ccc(Cl)cc2)cc1", "pC": 4.89}, {"compound": "Nc1ccc(S(=O)(=O)c2ccc(N)cc2)cc1", "pC": 5.92}, {"compound": "CCCNc1ccc(S(=O)(=O)c2ccc(N)cc2)cc1O", "pC": 5.64}, {"compound": "Nc1ccc(S(=O)(=O)c2ccc(O)cc2)cc1", "pC": 5.82}, {"compound": "NNC(=O)c1ccc(S(=O)(=O)c2ccc(N)cc2)cc1", "pC": 4.9}, {"compound": "COc1cc(S(=O)(=O)c2ccc(N)cc2)ccc1N", "pC": 5.56}, {"compound": "Nc1ccc(S(=O)(=O)c2ccc(N)cc2N)cc1", "pC": 5.99}, {"compound": "COC(=O)CNc1ccc(S(=O)(=O)c2ccc(N)cc2)cc1", "pC": 5.65}, {"compound": "CCNc1ccc(S(=O)(=O)c2ccc(N)cc2)cc1OC", "pC": 5.49}, {"compound": "Nc1ccc(S(=O)(=O)c2ccccc2[N+](=O)[O-])cc1", "pC": 5.61}, {"compound": "Nc1ccc(S(=O)(=O)c2ccc(N)cc2[N+](=O)[O-])cc1", "pC": 5.87}, {"compound": "CCNc1ccc(S(=O)(=O)c2ccc(N)cc2)c(O)c1", "pC": 6.14}, {"compound": "CCNc1ccc(S(=O)(=O)c2ccc(N)cc2)cc1O", "pC": 5.7}, {"compound": "CCNc1ccc(S(=O)(=O)c2ccc(N)cc2)cc1", "pC": 5.56}, {"compound": "Nc1ccc(S(=O)(=O)c2ccc(NCC(=O)O)cc2)cc1", "pC": 6.06}, {"compound": "Nc1ccc(S(=O)(=O)c2ccc(N)cc2Cl)cc1", "pC": 6.32}, {"compound": "CCCNc1ccc(S(=O)(=O)c2ccc(N)cc2)c(OC)c1", "pC": 5.92}, {"compound": "Nc1ccc(S(=O)(=O)c2ccccc2)cc1", "pC": 4.92}, {"compound": "CCCNc1ccc(S(=O)(=O)c2ccc(N)cc2)cc1OC", "pC": 5.4}, {"compound": "COC(=O)c1ccc(S(=O)(=O)c2ccc(N)cc2)cc1", "pC": 4.93}, {"compound": "Nc1ccc(S(=O)(=O)c2ccc([N+](=O)[O-])cc2)cc1", "pC": 4.51}, {"compound": "Nc1ccc(S(=O)(=O)c2ccc(C(=O)O)cc2)cc1", "pC": 5.44}, {"compound": "Nc1ccc(S(=O)(=O)c2ccccc2N)cc1", "pC": 5.65}, {"compound": "COc1ccc(S(=O)(=O)c2ccc(N)cc2)cc1", "pC": 5.12}, {"compound": "CN(C)c1ccc(S(=O)(=O)c2ccc(N)cc2)cc1", "pC": 5.75}, {"compound": "Cc1cc(N)ccc1S(=O)(=O)c1ccc(N)cc1", "pC": 6.19}, {"compound": "N#Cc1cc(N)ccc1S(=O)(=O)c1ccc(N)cc1", "pC": 5.65}, {"compound": "COc1cc(N)ccc1S(=O)(=O)c1ccc(N)cc1", "pC": 5.73}, {"compound": "Nc1ccc(S(=O)(=O)c2ccc([N+](=O)[O-])cc2N)cc1", "pC": 4.93}, {"compound": "CC(=O)Nc1ccc(S(=O)(=O)c2ccc(N)cc2)cc1", "pC": 5.15}, {"compound": "CCCCNc1ccc(S(=O)(=O)c2ccc(N)cc2)c(OC)c1", "pC": 5.99}, {"compound": "Cc1ccc(S(=O)(=O)c2ccc(N)cc2)cc1", "pC": 5.09}, {"compound": "CNc1ccc(S(=O)(=O)c2ccc(N)cc2)cc1", "pC": 5.89}, {"compound": "Nc1ccc(S(=O)(=O)c2ccc(N)c(O)c2)cc1", "pC": 6.07}]}]}
